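Five compound concentrations were applied to cells in 96-well plates for 48 hours; endpoints were derived by simple linear interpolation of the resulting dose-response curve. Definition used: TGI = concentration required for complete inhibition of growth.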
Columns and labels:
Test in all cases: DTP human tumour cell line panel, 48 h
[1] = system: 786-0 renal
[2] = system: A498 renal
[3] = system: A549 NSCLC
[4] = system: CAKI-1 renal
[5] = system: CCRF-CEM leukemia
[6] = system: COLO 205 colon
[7] = system: DLD-1 colon
[8] = system: DMS 114 small cell lung
[9] = system: DMS 273 small cell lung
[10] = system: EKVX NSCLC
[11] = system: HCC-2998 colon
[12] = system: HCT-116 colon
[13] = system: HCT-15 colon
[14] = system: HL-60(TB) leukemia
[15] = system: HOP-62 NSCLC
[16] = system: HOP-92 NSCLC
[17] = system: HT29 colon
[18] = system: IGROV1 ovarian
[19] = system: K-562 leukemia
[20] = system: KM12 colon
[21] = system: KM20L2 colon
[22] = system: LOX IMVI melanoma
[23] = system: LXFL 529 NSCLC
[24] = system: M14 melanoma
[25] = system: M19-MEL melanoma
[26] = system: MALME-3M melanoma
[27] = system: MOLT-4 leukemia
[28] = system: NCI-H226 lung
[29] = system: NCI-H23 lung
[30] = system: NCI-H460 lung
[31] = system: NCI-H522 lung
[32] = system: OVCAR-3 ovarian
[33] = system: OVCAR-5 ovarian
[34] = system: OVCAR-8 ovarian
[35] = system: RPMI-8226 leukemia
[36] = system: RXF 393 renal
[37] = system: SF-268 CNS
[38] = system: SF-295 CNS
[39] = system: SF-539 CNS
[40] = system: SK-MEL-2 melanoma
[41] = system: SK-MEL-28 melanoma
[42] = system: SK-MEL-5 melanoma
[43] = system: SK-OV-3 ovarian
[44] = system: SN12C renal
[45] = system: SNB-19 CNS
[46] = system: SNB-78 CNS
[47] = system: SR leukemia
[48] = system: SW-620 colon
[49] = system: TK-10 renal
[50] = system: U251 CNS
[51] = system: UACC-257 melanoma
[52] = system: UACC-62 melanoma
[53] = system: UO-31 renal
[54] = system: XF 498 CNS

CCCCc1c2c(nc3c1CCc1cc4c(nc1-3)-c1nc3c(c(CCCC)c1CC4)CCC/C3=C\c1ccccc1)/C(=C/c1ccccc1)CCC2
TGI [1]: > 100 µM
TGI [2]: > 100 µM
TGI [3]: > 100 µM
TGI [4]: > 100 µM
TGI [5]: > 100 µM
TGI [6]: > 100 µM
TGI [7]: > 100 µM
TGI [8]: > 100 µM
TGI [9]: > 100 µM
TGI [10]: > 100 µM
TGI [11]: > 100 µM
TGI [12]: > 100 µM
TGI [13]: > 100 µM
TGI [14]: > 100 µM
TGI [15]: > 100 µM
TGI [16]: > 100 µM
TGI [17]: > 100 µM
TGI [18]: > 100 µM
TGI [19]: > 100 µM
TGI [20]: > 100 µM
TGI [21]: > 100 µM
TGI [22]: > 100 µM
TGI [23]: > 100 µM
TGI [24]: > 100 µM
TGI [25]: > 100 µM
TGI [26]: > 100 µM
TGI [27]: > 100 µM
TGI [28]: > 100 µM
TGI [29]: > 100 µM
TGI [30]: > 100 µM
TGI [31]: > 100 µM
TGI [32]: > 100 µM
TGI [33]: > 100 µM
TGI [34]: > 100 µM
TGI [35]: > 100 µM
TGI [36]: 65.4 µM
TGI [37]: > 100 µM
TGI [38]: > 100 µM
TGI [39]: > 100 µM
TGI [40]: > 100 µM
TGI [41]: > 100 µM
TGI [42]: > 100 µM
TGI [43]: > 100 µM
TGI [44]: > 100 µM
TGI [45]: > 100 µM
TGI [46]: > 100 µM
TGI [47]: > 100 µM
TGI [48]: > 100 µM
TGI [49]: > 100 µM
TGI [50]: > 100 µM
TGI [51]: > 100 µM
TGI [52]: > 100 µM
TGI [53]: > 100 µM
TGI [54]: 66.6 µM

Reference: PubChem BioAssay (NCI)
